According to PubChem BioAssay (NCI):
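Protocol summary: plate cells (96-well), add compound at 5 concentrations, incubate 48 h, interpolate endpoints linearly. GI50: concentration for 50% inhibition of growth. Definition used: TGI = concentration required for complete inhibition of growth.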

Key:
Test in all cases: NCI anticancer screen, dose series, 48 h
[1] = test system: MOLT-4 leukemia
[2] = test system: RPMI-8226 leukemia
[3] = test system: HL-60(TB) leukemia
[4] = test system: SK-MEL-5 melanoma
[5] = test system: LOX IMVI melanoma
[6] = test system: SN12C renal
[7] = test system: MCF7 breast
[8] = test system: K-562 leukemia
[9] = test system: HT29 colon
[10] = test system: SK-OV-3 ovarian

| SMILES | GI50 [1] [µM] | TGI [1] [µM] | GI50 [2] [µM] | TGI [2] [µM] | GI50 [3] [µM] | TGI [3] [µM] | GI50 [4] [µM] | TGI [4] [µM] | GI50 [5] [µM] | TGI [5] [µM] | GI50 [6] [µM] | TGI [6] [µM] | GI50 [7] [µM] | TGI [7] [µM] | GI50 [8] [µM] | TGI [8] [µM] | GI50 [9] [µM] | TGI [9] [µM] | TGI [10] [µM] | GI50 [10] [µM] |
| --- | --- | --- | --- | --- | --- | --- | --- | --- | --- | --- | --- | --- | --- | --- | --- | --- | --- | --- | --- | --- |
| O=C(Nc1cnc(C(F)(F)F)cn1)c1cc(Cl)ccc1O | 0.352 | 1.78 | 0.273 | 2.75 | 0.279 | 0.654 | 0.131 | 0.336 | 0.291 | 1.75 | 0.326 | 52.4 | 0.29 | > 100 | 0.272 | > 100 | 2.56 | > 100 | – | – |
| COC1(C)C(=O)N2C1N(C(=O)OCc1ccccc1)CC2(C)C (stereo not drawn) | – | > 100 | – | > 100 | – | > 100 | – | > 100 | – | > 100 | – | > 100 | – | – | – | > 100 | – | > 100 | – | – |
| Nc1cc2cccc[n+]2c2cccc(Cl)c12 | 7.46 | – | 21.3 | – | 47.4 | – | 4.94 | 17.8 | – | – | 7.16 | 42.1 | 19.4 | – | 11.2 | – | 56.2 | – | – | – |
| O=C(CCc1nc(=S)[nH][nH]1)Nc1cccc(C(F)(F)F)c1 | – | > 100 | – | > 100 | – | > 100 | – | > 100 | – | > 100 | – | > 100 | – | – | – | > 100 | – | > 100 | > 100 | – |
| CC1=NN(C(=O)c2ccc(Cl)cc2)C(=O)/C1=C/c1ccc(Cl)cc1 | – | > 100 | – | > 100 | – | > 100 | – | > 100 | – | > 100 | – | > 100 | – | – | – | > 100 | – | > 100 | > 100 | – |
| COCCOCOC(C)(C)[C@H](CCOC(C)=O)O[Si](c1ccccc1)(c1ccccc1)C(C)(C)C | – | 19.1 | – | 15.1 | – | 10.4 | – | 23.7 | – | 27.6 | – | 29.5 | – | – | – | 28.8 | – | 28.5 | > 100 | – |
| O=NN(CCCl)C(=O)NC1CCC(=O)NC1=O (stereo not drawn) | – | 329 | – | 617 | – | 359 | – | 273 | – | 279 | – | – | – | > 1190 | – | 595 | – | > 1250 | > 1010 | – |
| Cc1ccc(NC(=O)CC2SC(N)=NC2=O)cc1C (stereo not drawn) | – | > 100 | – | > 100 | – | > 100 | – | – | – | > 100 | – | > 100 | – | – | – | > 100 | – | > 100 | > 100 | – |
| COc1ccc2c(c1)C(=O)c1c-2n(CCCN)c(=O)c2cc([N+](=O)[O-])ccc12 | < 0.01 | < 0.01 | < 0.01 | < 0.0222 | – | – | – | – | < 0.01 | < 0.01 | < 0.01 | < 0.01 | < 0.01 | < 0.01 | < 0.01 | 1.31 | – | – | < 0.01 | < 0.01 |
| CN1CCc2c1nc(-c1cccnc1)c1c2N(C)CC1 | – | > 100 | – | > 100 | – | > 100 | – | > 100 | – | > 100 | – | > 100 | – | – | – | > 100 | – | > 100 | > 100 | – |
| Cc1nc2c(sc(=S)n2-c2ccccc2)c2nc3ccccc3n12 | – | > 100 | – | > 100 | – | > 100 | – | – | – | > 100 | – | > 100 | – | – | – | > 100 | – | > 100 | > 100 | – |
| COc1ccc(Cc2nc3ccccc3s2)cc1OC | – | 63.9 | – | 70.9 | – | 45.3 | – | 30.1 | – | – | – | 30.8 | – | – | – | 49.6 | – | 35.8 | 43.5 | – |
| NCCC(=O)NC(Cc1cnc[nH]1)C(=O)O (stereo not drawn) | – | > 100 | – | > 100 | – | > 100 | – | > 100 | – | > 100 | – | > 100 | – | > 100 | – | > 100 | – | > 100 | – | – |
| NC(=O)C12CC3CC(CC(Br)(C3)C1)C2 | – | > 100 | – | > 100 | – | > 100 | – | > 100 | – | > 100 | – | > 100 | – | – | – | – | – | > 100 | > 100 | – |
| COc1cc(/C=C\c2ccncc2)cc(OC)c1OC | – | > 100 | – | > 100 | – | > 100 | – | > 100 | – | > 100 | – | > 100 | – | – | – | > 100 | – | > 100 | – | – |
| N/C(=N\c1nc2ccccc2s1)NC(=NC1CCCCC1)NC1CCCCC1 | 1.98 | 5.45 | – | – | 1.83 | 4.35 | 1.8 | 3.21 | 1.61 | 2.99 | 1.61 | 3.11 | 1.46 | 2.83 | – | – | 1.63 | 3.66 | 3.53 | 1.84 |
| CC(=O)NNc1nc(C)c(C(=O)/C=C/c2ccc(/C=C/C(=O)c3sc(NNC(C)=O)nc3C)cc2)s1 | – | > 100 | – | – | – | > 100 | – | – | – | > 100 | – | > 100 | – | – | – | > 100 | – | > 100 | > 100 | – |
| Nc1ccc(C(=O)N/C(=C\c2cccc([N+](=O)[O-])c2)c2nc3ccc(Cl)cc3[nH]2)cc1 | – | > 100 | – | – | – | – | – | > 100 | – | – | – | > 100 | – | – | – | > 100 | – | > 100 | > 100 | – |
| N.N.N.N.N.O=S(=O)([O-])C(F)(F)F.O=S(=O)([O-])C(F)(F)F.[Os+8] | 0.876 | 14.7 | 8.7 | > 100 | 8.92 | 36.2 | 15 | 34.1 | 4.74 | 20 | 12.7 | 37.3 | – | – | 7.51 | 61.5 | 15.4 | 55.3 | 60.2 | 20.6 |
| COc1cc2c(cc1-c1coc3cc(OCC=C(C)C)ccc3c1=O)OCO2 | – | 45.2 | – | 66 | – | 35.7 | – | 36.9 | – | 93.9 | – | > 100 | – | > 100 | – | > 100 | – | – | > 100 | – |
| COC/N=C(/N)NC#N | – | > 100 | – | > 100 | – | > 100 | – | > 100 | – | – | – | > 100 | – | – | – | > 100 | – | > 100 | > 100 | – |
